Counter-ions that a name gives are not always drawn.
Target: T1, hNPRA (Homo sapiens, UniProt P16066)
T1 construct: expressed in transfected cells
T1 sequence (P16066 33-1061): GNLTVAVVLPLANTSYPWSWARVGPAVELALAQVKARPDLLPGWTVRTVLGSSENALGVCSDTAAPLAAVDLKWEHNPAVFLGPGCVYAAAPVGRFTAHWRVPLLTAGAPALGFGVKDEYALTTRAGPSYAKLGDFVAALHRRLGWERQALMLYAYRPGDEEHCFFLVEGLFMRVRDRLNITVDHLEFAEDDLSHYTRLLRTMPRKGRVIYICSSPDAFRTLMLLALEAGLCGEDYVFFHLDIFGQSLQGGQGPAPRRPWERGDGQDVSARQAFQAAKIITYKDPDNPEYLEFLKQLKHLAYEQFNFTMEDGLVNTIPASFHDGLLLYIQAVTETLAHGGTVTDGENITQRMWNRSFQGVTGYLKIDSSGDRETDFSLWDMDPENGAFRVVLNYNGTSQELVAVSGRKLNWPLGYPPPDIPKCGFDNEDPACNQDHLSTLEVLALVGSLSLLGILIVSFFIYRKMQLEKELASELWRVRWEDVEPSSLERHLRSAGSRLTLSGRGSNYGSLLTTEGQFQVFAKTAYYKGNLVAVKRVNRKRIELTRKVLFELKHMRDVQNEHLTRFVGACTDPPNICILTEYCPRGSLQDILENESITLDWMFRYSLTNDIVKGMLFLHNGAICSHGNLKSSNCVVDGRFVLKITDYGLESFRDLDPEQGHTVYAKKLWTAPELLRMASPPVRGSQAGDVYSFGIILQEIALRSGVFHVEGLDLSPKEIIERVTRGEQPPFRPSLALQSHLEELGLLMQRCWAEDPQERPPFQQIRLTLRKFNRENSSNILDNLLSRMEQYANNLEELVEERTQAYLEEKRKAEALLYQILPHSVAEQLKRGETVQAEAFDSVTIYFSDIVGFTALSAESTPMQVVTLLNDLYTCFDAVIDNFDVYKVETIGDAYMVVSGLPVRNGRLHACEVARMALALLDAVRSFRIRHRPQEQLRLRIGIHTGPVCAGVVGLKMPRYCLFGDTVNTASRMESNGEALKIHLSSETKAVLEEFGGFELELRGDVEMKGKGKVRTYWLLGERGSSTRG
Assay: NPRA Functional Cell Assay (cGMP HTRF, NPRA HEK JumpIn stable cells)
Format: cell-based
Details: cGMP production, 1 hour at 37° C., 10-point dose response
Description: NPRA Functional Cell Assay
Assay Buffer components HEPES and Opti-MEM® I Reduced-Serum with Glutamine (no phenol red) were from Gibco/Invitrogen (Thermo Fisher Scientific, Waltham, MA USA). 3-Isobutyl-1-methylxanthine (IBMX) and 4-(3-Butoxy-4-methoxybenzyl) imidazolidin-2-one (RO20) were obtained from Sigma-Aldrich (St. Louis, MO, USA). DPBS (Dulbecco's phosphate-buffered saline) without Ca2+ and Mg2+ was purchased from GE Healthcare Bio-Sciences (Pittsburgh, PA, USA). 384 well white Optiplates were from Perkin Elmer (Atlantic Highlands, NJ, USA). Human ANP (Atrial Natriuretic Peptide) (1-28) was purchased from Sigma-Aldrich (Catalog #A1663) and rat ANP (1-28) from Bachem (Torrance, CA, USA) (Catalog #H2100). Human-BNP (Human-Brain Natriuretic Peptide) (1-32 AA) was purchased from American Peptide Company (Sunnyvale, CA, USA) (product No. 14-1-90). cGMP kits were purchased from Cisbio. The assay ready frozen (ARF) Human/rat/dog NPRA HEK JumpIn Stable frozen cells (low passage number 5-11) were prepared in-house.
Test compounds were titrated in DMSO in a 10-point dose response in a separate step followed by a 100-fold dilution into the reaction. Positive response for each assay was determined using 10 nM rat-ANP peptide (rat cells) or 50 nM h-ANP peptide (human and dog cells).
Cells were thawed, washed with DPBS and resuspended in assay buffer (Opti-MEM+Glutamine, phenol red free media, 10 mM HEPES, 100 uM IBMX and 100 uM RO20) that was warmed to 37° C. Cells were then transferred to microplates via a Microplate Combi dispenser at a density of 1500, 400 and 1200 cells/well for human, rat and dog cells respectively, followed by acoustic transfer (Echo) of compound.
(§1) Compounds and cells were incubated at 37° C. with 5% CO2 for 1 hour, after which the cells were lysed and cGMP was captured using a CisBio cGMP HTRF assay kit. The TRF signal was measured with an Envision plate reader (emission set to 615 and 665 nm) after 1 hour incubation at ambient temperature. The TRF signal was converted to [cGMP] through the use of a cGMP calibration curve on each microplate. EC50's were generated from the resulting dose response curves by use of a 4 parameter logistic algorithm.
Assay Buffer components HEPES and Opti-MEM® I Reduced-Serum with Glutamine (no phenol red) were from Gibco/Invitrogen. 3-Isobutyl-1-methylxanthine (IBMX) and 4-(3-Butoxy-4-methoxybenzyl) imidazolidin-2-one (RO20) were obtained from Sigma. DPBS (Dulbecco's phosphate-buffered saline) without Ca2+ and Mg2+ was purchased from GE Healthcare Bio-Sciences (Pittsburgh, PA, USA). 384 well white Optiplates were from Perkin Elmer (Atlantic Highlands, NJ, USA). Human ANP (1-28) was purchased from Sigma (A1663) and rat ANP (1-28) from Bachem (H2100). Human-BNP (1-32 AA) was purchased from American Peptide Company (Sunnyvale, CA, USA) (product No. 14-1-90). cGMP kits were purchased from Cisbio (Bedford, MA, USA). The assay ready frozen (ARF) Human/rat/dog NPRA HEK JumpIn Stable frozen cells (low passage number 5-11) were prepared in-house.
as §1, with “Envision®” for “Envision”, “reader (Perkin Elmer)” for “reader”
hNPRA EC50 (nM) were determined for the compounds of Example 1 through Example 273 and are reported in the Experimental section of this application.

| EC50 [nM] | SMILES |
| --- | --- |
| 942 | CC(C)(C)[C@H]1CCc2nc3sc(C(=O)N[C@H](CCNC4(CO)CCC4)c4cccc(NS(C)(=O)=O)c4)cc3cc2C1 (racemic) [Example 15, ammonium; methylsulfonyl-1-[3-[rac-(1R)-3-[[1-(hydroxymethyl)cyclobutyl]amino]-1-[[rac-(6S)-6-tert-butyl-5,6,7,8-tetrahydrothieno[2,3-b]quinoline-2-carbonyl]amino]propyl]phenyl] azanide] |
| 766 | CC(C)(C)[C@H]1CCc2nc3sc(C(=O)N[C@H](CCN4CCC(O)CC4)c4cccc(C(=O)NC5CNC(=O)C5)c4)nc3cc2C1 (mixture of isomers) [Example 155, rac-(7S)-7-tert-butyl-N-[rac-(1R)-3-(4-hydroxy-1-piperidyl)-1-[3-[(5-oxopyrrolidin-3-yl)carbamoyl]phenyl]propyl]-5,6,7,8-tetrahydrothiazolo[5,4-b]quinoline-2-carboxamide] |
| 1580 | CC(C)(C)[C@H]1CCc2nc3sc(C(=O)N[C@H](CCN4CCCC5(CCNC5=O)C4)c4cccc(NS(C)(=O)=O)c4)cc3cc2C1 (mixture of isomers) [Example 19, ammonium; methylsulfonyl-[3-[rac-(1R)-3-(1-oxo-2,9-diazaspiro[4.5]decan-9-y1)-1-[[rac-(6S)-6-tert-butyl-5,6,7,8-tetrahydrothieno[2,3-b]quinoline-2-carbonyl]amino]propyl]phenyl]azanide] |
| 1120 | CC1(O)CN(CC[C@@H](NC(=O)c2cc3cc4c(nc3s2)CC[C@H](C(C)(C)C)C4)c2cccc(NS(C)(=O)=O)c2)C1 (racemic) [Example 16, ammonium; methylsulfonyl-[3-[rac-(1R)-3-(3-hydroxy-3-methyl-azetidin-1-yl)-1-[[rac-(6S)-6-tert-butyl-5,6,7,8-tetrahydrothieno[2,3-b]quinoline-2-carbonyl]amino]propyl]phenyl] azanide] |
| 1210 | COC(=O)C1CN(C(=O)c2cccc([C@@H](CCN3CCC(O)CC3)NC(=O)c3nc4cc5c(nc4s3)CC[C@H](C(C)(C)C)C5)c2)CCO1 (mixture of isomers) [Example 160, methyl 4-[3-[rac-(1R)-3-(4-hydroxy-1-piperidyl)-1-[[rac-(7S)-7-tert-butyl-5,6,7,8-tetrahydrothiazolo[5,4-b]quinoline-2-carbonyl]amino]propyl]benzoyl]morpholine-2-carboxylate] |
| 1980 | CN(C)S(=O)(=O)Nc1cccc([C@@H](CCN2CCC(O)CC2)NC(=O)c2nc3cc4c(nc3s2)CC[C@H](C(C)(C)C)C4)c1 (mixture of isomers) [Example 216, (7S)-7-tert-butyl-N-[rac-(1R)-1-[3-(dimethylsulfamoylamino)phenyl]-3-(4-hydroxypiperidin-1-ium-1-yl)propyl]-5,6,7,8-tetrahydrothiazolo[5,4-b]quinoline-2-carboxamide; formate] |
| 889 | CC(C)(C)[C@H]1CCc2nc3sc(C(=O)N[C@H](CCNC4CNC(=O)C4)c4ccc(-c5ccc(=O)[nH]c5)cc4)cc3cc2C1 (mixture of isomers) [Example 57, (5-oxopyrrolidin-3-yl)-[rac-(3R)-3-[4-(6-oxo-1H-pyridin-3-yl)phenyl]-3-[[rac-(6S)-6-tert-butyl-5,6,7,8-tetrahydrothieno[2,3-b]quinoline-2-carbonyl]amino]propyl] ammonium;formate] |
| 721 | CC(C)(C)[C@H]1CCc2nc3sc(C(=O)N[C@H](CCN4CCC(O)CC4)c4cccc(C(=O)NC5CCNC5=O)c4)nc3cc2C1 (mixture of isomers) [Example 154, rac-(7S)-7-tert-butyl-N-[rac-(1R)-3-(4-hydroxy-1-piperidyl)-1-[3-[(2-oxopyrrolidin-3-yl)carbamoyl]phenyl]propyl]-5,6,7,8-tetrahydrothiazolo[5,4-b]quinoline-2-carboxamide] |
| 692 | CC(C)(C)[C@H]1CCc2nc3sc(C(=O)N[C@H](CCN4CCC(O)C4)c4ccc(-c5ccc(=O)[nH]c5)cc4)nc3cc2C1 (mixture of isomers) [Example 78, rac-(7S)-7-tert-butyl-N-[rac-(1R)-3-(3-hydroxypyrrolidin-1-yl)-1-[4-(6-oxo-1H-pyridin-3-yl)phenyl]propyl]-5,6,7,8-tetrahydrothiazolo[5,4-b]quinoline-2-carboxamide] |
| 328 | CC(C)(C)[C@H]1CCc2nc3sc(C(=O)N[C@H](CCN4CCC(CO)C4)c4ccc(-c5ccc(=O)[nH]c5)cc4)nc3cc2C1 (mixture of isomers) [Example 74, rac-(7S)-7-tert-butyl-N-[rac-(1R)-3-[3-(hydroxymethyl)pyrrolidin-1-yl]-1-[4-(6-oxo-1H-pyridin-3-yl)phenyl]propyl]-5,6,7,8-tetrahydrothiazolo[5,4-b]quinoline-2-carboxamide] |
| 220 | CC(C)(C)[C@H]1CCc2nc3sc(C(=O)N[C@H](CCN4CCC(N)CC4)c4ccc(-c5cnc(O)c(F)c5)cc4)nc3cc2C1 (racemic) [Example 198, [1-[rac-(3R)-3-[4-(5-fluoro-6-hydroxy-3-pyridyl)phenyl]-3-[[rac-(7S)-7-tert-butyl-5,6,7,8-tetrahydrothiazolo[5,4-b]quinoline-2-carbonyl]amino]propyl]-4-piperidyl]ammonium; formate] |
| 462 | CN1C(=O)OCC12CN(C(=O)c1cccc([C@@H](CCN3CCC(O)CC3)NC(=O)c3nc4cc5c(nc4s3)CC[C@H](C(C)(C)C)C5)c1)C2 (racemic) [Example 144, rac-(7S)-7-tert-butyl-N-[rac-(1R)-3-(4-hydroxy-1-piperidyl)-1-[3-(5-methyl-6-oxo-7-oxa-2,5-diazaspiro[3.4]octane-2-carbonyl)phenyl]propyl]-5,6,7,8-tetrahydrothiazolo[5,4-b]quinoline-2-carboxamide] |
| 792 | CC(C)(C)[C@H]1CCc2nc3sc(C(=O)N[C@H](CCN4CCCC(O)C4)c4ccc(-c5ccc(=O)[nH]c5)cc4)cc3cc2C1 (mixture of isomers) [Example 55, rac-(6S)-6-tert-butyl-N-[rac-(1R)-3-(3-hydroxypiperidin-1-ium-1-yl)-1-[4-(6-oxo-1H-pyridin-3-yl)phenyl]propyl]-5,6,7,8-tetrahydrothieno[2,3-b]quinoline-2-carboxamide;formate] |

Source: US12440496B2, “Natriuretic peptide receptor a agonists useful for the treatment of cardiometabolic diseases, kidney disease and diabetes” (Merck Sharp & Dohme LLC, priority 2019, dated 2025)
